Data set [1] deals with HL-60 (human promyelocytic leukemia cell line). As to conditions: 48 h.
Experimental: (§1) HL-60 (human promyelocytic leukemia cell line) and Vero (African green monkey kidney) cell lines from American Type Culture Collection (ATCC-LGC) were each grown in Dulbecco’s modified Eagle’s medium (DMEM) with 4.5 g/L glucose (Sigma-Aldrich), supplemented with 10% fetal bovine serum (Gibco), 1% of a penicillin–streptomycin mixture (10.000 and 10 mg/mL, respectively), and 200 mM L-glutamine. Cells were maintained at 37 °C in 5% CO2 and 98% humidity.
(§2) Viable cells were assessed using the colorimetric MTT [3-(4,5-dimethylthiazol-2-yl)-2,5-diphenyl tetrazolium bromide reduction assay [49]. A cell suspension (1 × 10^4 /200 μL/well) in log-phase of growth seeded in DMEM, supplemented with 5% fetal bovine serum in microtiter well plates (96 wells, Iwaki, London, UK) were added to compounds predissolved in dimethylsulphoxide (DMSO) at different concentrations. After 48 h of incubation, 20 μL/well of the MTT solution (5 mg/mL in phosphate buffered saline, PBS) were added and plates incubated for 4 h at 37 °C. Subsequently, the medium/MTT solutions were removed carefully by aspiration and replaced with 150 μL/well of DMSO to dissolve the formazan crystals. Absorbance was measured in a microplate reader (Infinite M200, Tecan) at a wavelength of 550 nm. Solvent control cultures were considered 100% and percentage of viable treated cells were plotted against compound concentrations. The 50% cell viability value (IC50) was calculated from the curve. Each experiment was performed at least three times in triplicates. Data are given in arithmetic means ± SD. Selectivity ratio was defined as IC50 value for the tumoral cell line divided by IC50 value for the Vero cell line.
Data set [2] concerns Vero (African green monkey kidney) cell line. The note with it: 48 h.
Experimental: as §1, §2
In data set [3] the test system is HL-60 (human promyelocytic leukemia cell line). Put plainly: MTT cell viability (antiproliferative) assay, HL-60. The note with it: Vero (IC50) on HL-60 (IC50).
Experimental: as §1, §2

Results on 1 compound are retold here after PMC7731379, “Withanolide-Type Steroids from Withania aristata as Potential Anti-Leukemic Agents” (Molecules, 2020).

Consider `CC1=C(CO)C(=O)OC(C(C)C2(O)CCC3C4CC=C5C(O)C=CC(=O)C5(C)C4CCC32C)C1` (stereo not drawn) [Compound 13, 4β,17α,27-trihydroxy-1-oxo-witha-2,5,24-trienolide], for which the 50% inhibitory concentration (IC50) (usually the concentration that inhibits the measured activity by half) turned out to be 12.3 ± 0.11 µM in data set [1] and 23.8 ± 0.41 µM in data set [2]. In addition, in data set [3], the “SI (selectivity index)” value was 1.9.
